Results as given in patent publication US20240024338A1, “CARBIDOPA AND L-DOPA PRODRUGS AND METHODS OF USE” (AbbVie Inc., priority 2016, published 2024).

Columns and labels:
[1] = In vitro bioconversion study (intestinal S9 fractions), rat; type: in vitro ADME; conditions: rat intestinal S9 fraction 1 mg/mL, prodrug 2.5 μg/mL, 37° C.
Text: (§1) The t1/2 appeared to be shorter in human intestinal S9 than in rat intestinal S9.

[2] = In vitro bioconversion study, kidney S9 fraction, human; type: in vitro ADME; conditions: human kidney S9 fraction 1 mg/mL, prodrug 2.5 μg/mL, 37° C.
Experimental: (§2) The in vitro bioconversion of the L-dopa phosphate prodrugs to L-dopa and the carbidopa phosphate prodrugs to carbidopa was evaluated in several studies. In brief, the L-dopa and carbidopa phosphate prodrugs (2.5 μg/mL) were incubated with tissue homogenate or fractions from rats, mini-pigs, or human, including blood, skin homogenate (3 mg/mL), liver microsomes (1 mg/mL), liver S9 fraction (1 mg/mL), kidney S9 fraction (1 mg/mL), and intestine S9 fractions (1 mg/mL). The reaction mixtures were incubated at 37° C. for 5 to 6 time points within 1 to 2 hours. At the end of each time point, the reaction mixtures were quenched by 2 to 3 volumes of 5% trichloroacetic acid in water. After quenching, the mixtures were centrifuged at 3000 rpm for 20 minutes, and the supernatants were analyzed by LC-MS for quantitation of the prodrug, L-dopa or carbidopa. The in vitro bioconversion was assessed by monitoring both time-dependent depletion of the prodrug and the formation of the corresponding L-dopa or carbidopa.

[3] = In vitro bioconversion study, liver S9 fraction, mini-pig; type: in vitro ADME; conditions: mini-pig liver S9 fraction 1 mg/mL, prodrug 2.5 μg/mL, 37° C.
Experimental: as §2

[4] = In vitro bioconversion study, liver S9 fraction, rat; type: in vitro ADME; conditions: rat liver S9 fraction 1 mg/mL, prodrug 2.5 μg/mL, 37° C.
Experimental: as §2

[5] = 1-Day stability study of prodrugs in aqueous solution; type: physicochemical; conditions: aqueous solution 80 μg/mL, ambient storage
Experimental: The L-dopa phosphate prodrugs and the carbidopa phosphate prodrugs were evaluated in a stability study.

[6] = Phosphate prodrug solubility study in water; type: physicochemical; conditions: for Solubility: water, ambient, visual assessment; for solubility compared to L-dopa and carbidopa (FIG. 1): pH of 7.4
Experimental: The L-dopa phosphate prodrugs and the carbidopa phosphate prodrugs were evaluated in a solubility study. The solubility values of the phosphate prodrugs in water under ambient conditions were determined by visual assessment. Table 13-A reports the results of the study, including the measured values for L-dopa and carbidopa.

[7] = In vitro bioconversion study (skin homogenates), rat; conditions: rat skin homogenate 3 mg/mL, prodrug 2.5 μg/mL, 37° C.
[8] = In vitro bioconversion study (skin homogenates), human; conditions: human skin homogenate 3 mg/mL, prodrug 2.5 μg/mL, 37° C.
[9] = In vitro bioconversion study, liver S9 fraction, human; type: in vitro ADME; conditions: human liver S9 fraction 1 mg/mL, prodrug 2.5 μg/mL, 37° C.
Experimental: as §2

[10] = In vitro bioconversion study (skin homogenates), mini-pig; conditions: mini-pig skin homogenate 3 mg/mL, prodrug 2.5 μg/mL, 37° C.
[11] = In vitro bioconversion study (blood), rat; conditions: prodrug 2.5 μg/mL, 37° C.
Experimental: The in vitro bioconversion of the L-dopa phosphate prodrugs to L-dopa and the carbidopa phosphate prodrugs to carbidopa was evaluated in several studies. […] The reaction mixtures were incubated at 37° C. for 5 to 6 time points within 1 to 2 hours. At the end of each time point, the reaction mixtures were quenched by 2 to 3 volumes of 5% trichloroacetic acid in water. After quenching, the mixtures were centrifuged at 3000 rpm for 20 minutes, and the supernatants were analyzed by LC-MS for quantitation of the prodrug, L-dopa or carbidopa. The in vitro bioconversion was assessed by monitoring both time-dependent depletion of the prodrug and the formation of the corresponding L-dopa or carbidopa.

[12] = In vitro bioconversion study (blood), human; type: in vitro ADME; conditions: prodrug 2.5 μg/mL, 37° C.
Experimental: as §2

[13] = In vitro bioconversion study, human liver microsomes; type: in vitro ADME; conditions: human liver microsomes 1 mg/mL, prodrug 2.5 μg/mL, 37° C.
Experimental: as §2

[14] = In vitro bioconversion study (intestinal S9 fractions), human; type: in vitro ADME; conditions: human intestinal S9 fraction 1 mg/mL, prodrug 2.5 μg/mL, 37° C.
Text: as §1

[15] = 1-Day stability study, diphosphate combination solution; type: physicochemical; conditions: combination solution: L-dopa 3′,4′-diphosphate 35 mg/mL + carbidopa 3′,4′-diphosphate 8.7 mg/mL, pH 6.2, room temperature, nitrogen purged
Experimental: In addition, a solution combining the diphosphates of each compound (L-dopa 3′, 4′-diphosphate at 35 mg/mL and carbidopa 3′, 4′-diphosphate at 8.7 mg/mL) was monitored over one day at room temperature. This sample was purged with nitrogen to remove oxygen.

[16] = In vitro bioconversion study, kidney S9 fraction, rat; type: in vitro ADME; conditions: rat kidney S9 fraction 1 mg/mL, prodrug 2.5 μg/mL, 37° C.
Experimental: as §2

[17] = In vitro bioconversion study (blood), mini-pig; type: in vitro ADME; conditions: prodrug 2.5 μg/mL, 37° C.
Experimental: as §2

[18] = L-dopa 4′-monophosphate/carbidopa 4′-monophosphate 4:1, 16-hour subcutaneous infusion in rats; type: in vivo; conditions: 4:1, SC bolus 60/14 mg/kg then infusion 300/71 mg/kg
Experimental: After 1.5 hours, the combination was dosed again via continuous infusion at a dose of 300/71 mg/kg over next 14.5 hours. Blood samples were collected at […], 0.25, 1, 6, 16, and 24 hours post dose. […] FIG. 7 provides a time-concentration profile for L-dopa and L-dopa 4′-monophosphate blood levels after administration of the combination of 4′-monophosphate prodrugs at a 4:1 ratio. […] Steady state concentration of ˜1 μg/mL was maintained over the infusion period for carbidopa. […] FIG. 9 provides a time-concentration profile for carbidopa and carbidopa 4′-monophosphate blood levels after administration of the combination of 4′-monophosphate prodrugs at a 4:1 ratio.

[19] = 7-Day stability study, 4′ monophosphate combination solution; type: physicochemical; conditions: combination solution: L-dopa 4′-monophosphate 200 mg/mL + carbidopa 4′-monophosphate 50 mg/mL, pH 7.4, room temperature
Experimental: In addition, a solution combining the L-dopa 4′-monophosphate at 200 mg/mL and carbidopa 4′-monophosphate at 50 mg/mL was monitored over 7 days at room temperature. These samples were prepared with and without purging with nitrogen to remove oxygen.

[20] = for Bioconversion ratio (prodrug to active drug), Value: projected for human, mean of ratios observed in preclinical animals
[21] = 15:1 L-dopa 4′-monophosphate/carbidopa 4′-monophosphate 16-hour SC infusion in mini-pigs; conditions: 15:1, 48/3.2 mg/kg
Experimental: In this study, the pig received a 16-hour subcutaneous infusion of a combination of the L-dopa 4′-monophosphate and the carbidopa 4′-monophosphate together in an aqueous solution at a dose ratio of 15:1 without an initial bolus dose. The doses were 48/3.2 mg/kg for L-dopa 4′-monophosphate and the carbidopa 4′-monophosphate, respectively.

[22] = listed as diphosphate prodrug of carbidopa
[23] = listed as 3′,4′-diphosphate prodrug of carbidopa
[24] = listed as 4′-phosphate prodrug of carbidopa
[25] = listed as 4′-phosphate prodrug of L-dopa

SMILES | L-Dopa or Carbidopa Formation [1] | L-Dopa or Carbidopa Formation [14] | CLp (plasma clearance), Value ([20]; human) | stability and formation of L-dopa or carbidopa [2] | stability and formation of L-dopa or carbidopa [3] | stability and formation of L-dopa or carbidopa [4] | L-Dopa or Carbidopa Formation [7] | T1/2 [7] | L-Dopa or Carbidopa Formation [8] | T1/2 [8] | stability and formation of L-dopa or carbidopa [9] | L-Dopa or Carbidopa Formation [10] | T1/2 [10] | L-Dopa or Carbidopa Formation [11] | T1/2 [11] | L-Dopa or Carbidopa Formation [12] | stability and formation of L-dopa or carbidopa [13] | stability and formation of L-dopa or carbidopa [16] | L-Dopa or Carbidopa Formation [17] | also measured
C[C@@](Cc1ccc(OP(=O)(O)O)c(OP(=O)(O)O)c1)(NN)C(=O)O [Carbidopa 3′,4′-diphosphate] | Yes | Yes |  | stable without formation of L-dopa or carbidopa observed | stable without formation of L-dopa or carbidopa observed | stable without formation of L-dopa or carbidopa observed | No | stable | No | stable | stable without formation of L-dopa or carbidopa observed | No | stable | Yes | 53 min | No | stable without formation of L-dopa or carbidopa observed | stable without formation of L-dopa or carbidopa observed | No | T1/2 [1, 22]: rapidly dephosphorylated; % Remaining After One Day ([5]; pH 6.8): >97%; Solubility ([6]; pH 5.5, Amorphous): >247 mg/mL; T1/2 [12, 23]: stable; T1/2 [12, 22]: not dephosphorylated; T1/2 [14, 22]: rapidly dephosphorylated; % Remaining After One Day [15]: >99%; T1/2 [17, 23]: stable; T1/2 [17, 22]: not dephosphorylated
C[C@@](Cc1ccc(O)c(OP(=O)(O)O)c1)(NN)C(=O)O [Carbidopa 3′-phosphate, Carbidopa 3′-monophosphate] |  |  |  |  |  |  | Yes | 724 min | Yes | 602 min |  | Yes | 413 min | Yes | 20.5 min | Yes |  |  | Yes | % Remaining After One Day ([5]; pH 6.5): >94%; Solubility ([6]; pH 7.1, Amorphous): >96 mg/mL; T1/2 [12]: 58 min; T1/2 [17]: 8.9 min
N[C@@H](Cc1ccc(O)c(OP(=O)(O)O)c1)C(=O)O [L-dopa 3′-phosphate] |  |  |  |  |  |  | Yes | 737 min | Yes | 673 min |  | Yes | 885 min | Yes | 20.6 min | Yes | stable without formation of L-dopa or carbidopa observed |  | Yes | % Remaining After One Day ([5]; pH 7.0): >99%; Solubility ([6]; pH 7.0, Crystalline): >161 mg/mL; T1/2 [12]: 28 min; T1/2 [17]: 8.8 min

Continued, in another order:

L-Dopa or Carbidopa Formation [1] | L-Dopa or Carbidopa Formation [14] | CLp (plasma clearance), Value ([20]; human) | SMILES | stability and formation of L-dopa or carbidopa [2] | stability and formation of L-dopa or carbidopa [3] | stability and formation of L-dopa or carbidopa [4] | L-Dopa or Carbidopa Formation [7] | T1/2 [7] | L-Dopa or Carbidopa Formation [8] | T1/2 [8] | stability and formation of L-dopa or carbidopa [9] | L-Dopa or Carbidopa Formation [10] | T1/2 [10] | L-Dopa or Carbidopa Formation [11] | T1/2 [11] | L-Dopa or Carbidopa Formation [12] | stability and formation of L-dopa or carbidopa [13] | stability and formation of L-dopa or carbidopa [16] | L-Dopa or Carbidopa Formation [17] | also measured
Yes | Yes | 141 L/h | C[C@@](Cc1ccc(OP(=O)(O)O)c(O)c1)(NN)C(=O)O [Carbidopa 4′-phosphate, Carbidopa 4′-monophosphate] | stable without formation of L-dopa or carbidopa observed | stable without formation of L-dopa or carbidopa observed | stable without formation of L-dopa or carbidopa observed |  |  | Yes |  | stable without formation of L-dopa or carbidopa observed | Yes |  | Yes |  |  | stable without formation of L-dopa or carbidopa observed | stable without formation of L-dopa or carbidopa observed |  | exposure of remaining carbidopa 4′-monophosphate as % of carbidopa [18]: ~8%; T1/2 [1, 24]: rapidly dephosphorylated; % Remaining After One Day ([5]; pH 6.8): >98%; % Remaining After 7 Days ([19]; Nitrogen Purged): >99%; % Remaining After 7 Days ([19]; Non-Purged): >97%; solubility compared to L-dopa and carbidopa (FIG. 1) [6]: increased solubility; SC F (subcutaneous bioavailability), Value ([20]; human): 0.65; Bioconversion ratio (prodrug to active drug), Value [20]: 0.7; T1/2 [14, 24]: rapidly dephosphorylated; exposure of remaining carbidopa 4′-monophosphate as % of the carbidopa exposure [21]: ~22%
 |  | 18 L/h | C[C@@](Cc1ccc(O)c(O)c1)(NN)C(=O)O [Carbidopa, (2S)-3-(3,4-dihydroxyphenyl)-2-hydrazino-2-methylpropanoic acid] |  |  |  |  |  |  |  |  |  |  |  |  |  |  |  |  | 
Yes | Yes | 100 L/h | N[C@@H](Cc1ccc(OP(=O)(O)O)c(O)c1)C(=O)O [L-dopa 4′-phosphate, (S)-2-amino-3-(3-hydroxy-4-(phosphonooxy)phenyl)propanoic acid] | stable without formation of L-dopa or carbidopa observed | stable without formation of L-dopa or carbidopa observed | stable without formation of L-dopa or carbidopa observed |  |  | Yes |  | stable without formation of L-dopa or carbidopa observed | Yes |  | Yes |  |  |  | stable without formation of L-dopa or carbidopa observed |  | exposure of remaining L-dopa 4′-monophosphate as % of levodopa [18]: ~22%; T1/2 [1, 25]: rapidly dephosphorylated; % Remaining After One Day ([5]; pH 7.0): >99%; % Remaining After 7 Days ([19]; Nitrogen Purged): >99%; % Remaining After 7 Days ([19]; Non-Purged): >99%; solubility compared to L-dopa and carbidopa (FIG. 1) [6]: increased solubility; SC F (subcutaneous bioavailability), Value ([20]; human): 0.75; Bioconversion ratio (prodrug to active drug), Value [20]: 0.9; T1/2 [14, 25]: rapidly dephosphorylated; exposure of remaining L-dopa 4′-monophosphate as % of the levodopa exposure [21]: ~10%
 |  | 24 L/h | N[C@@H](Cc1ccc(O)c(O)c1)C(=O)O [L-dopa, L-3,4-dihydroxyphenylalanine] |  |  |  |  |  |  |  |  |  |  |  |  |  |  |  |  | CLp Levodopa ([20]; human): 24 L/h
